One molecule from patent US20160326098A1, “Pharmaceutically Active Compound for Use as Anti-inflammatory Agent” (Pax Forschung GmbH, priority 2013, published 2016) can be followed below.

The structures appear in SMILES notation.

The subject of the data set is nitrite/nitrate (NOx). As to the kind of experiment: Nitrite/nitrate level, colitis animals, comparison with GM-20 (FIG. 35). The class given is in vivo, rats. As to conditions: 1.11 mmol/kg body weight, vs sham control group P. As for the experimental part:
The levels of plasma nitrite/nitrate (NOx), stable end products of NO were measured by the Griess reaction. This assay depends on the reduction of nitrate to nitrite, which is then converted into a colored azo dye compound that is detected spectrophotometrically at 540 nm.
The above-described clinical studies were repeated with animals having colitis which was induced as described above. 20 animals (rats) were randomly divided into four groups, wherein group L served as sham-operated control, having no colitis, group M served as second control having colitis but receiving no further treatment, group N having colitis and being treated with 1.11 mmol/kg body weight of ASS and group O having colitis and being treated with 1.11 mmol/kg of the compound according to the invention. One day after the animals received the enema with TNBS (40 mg/kg i.c.), wherein the animals of group L only received the respective solvent, the animals of group N and O were treated with ASS and the compound according to the invention, respectively. The other animals only received the respective solvent again. Two days after the enema the effects of the treatment were determined by measurement of body weight, blood gas analysis and biopsy. […] Surgery was performed to allow registration of the hemodynamic parameters at 1 h intervals for 6 h (cardiac output [CO] data were measured only at the end of the experiments). […] In addition, fluorescence confocal endomicroscopy was performed to examine the microvasculature and morphologic changes of the mucosa of the distal colon, and full-thickness tissue samples and venous blood samples were taken to determine the biochemical changes in the colon and plasma.
The tests were conducted according to the above described protocol. […] Comparative compound GM-20 is described in the state of the art as being suitable for the therapeutic treatment pathologic disorders characterized by degranulation of the mast cells caused by immunogenic hyperstimulation (see U.S. Pat. No. 5,506,224) The nitrite/nitrate level was measured as described above.

As for `CC(=O)Oc1ccccc1C(=O)NCCO` [GM-20], the nitrite/nitrate level entry is recorded as “increased nitrite/nitrate level”.
